Measured values from ChEMBL document CHEMBL4482312, “HTS Assay for Identifying Small Molecule Inhibitors of RAD52 and Uses of Identified Small Molecule Inhibitors for Treatment and Prevention of BRCA-Deficient Malignancies” (2018).
Active and inactive are the calls of the source. No cut-off for these calls is given here.

Tests used:
Homo sapiens [1] = species on record: Homo sapiens; experiment: Binding affinity to RPA (unknown origin) assessed as effect on RPA-ssDNA interaction at 20 uM by water-logsy NMR method
[2] = target: T1, DNA repair protein RAD52 homolog (Homo sapiens) (UniProt P43351); experiment: Inhibition of RAD52 in checkpoint deficient in hTERT-immortalized wild-type human GM01604 fibroblasts assessed as decrease in MUS81/EME1/RAD52-dependent DSB formation by measuring mean tail moment in presence of […] in presence of RAD52 siRNA by neutral comet assay
T1 sequence (whole entry): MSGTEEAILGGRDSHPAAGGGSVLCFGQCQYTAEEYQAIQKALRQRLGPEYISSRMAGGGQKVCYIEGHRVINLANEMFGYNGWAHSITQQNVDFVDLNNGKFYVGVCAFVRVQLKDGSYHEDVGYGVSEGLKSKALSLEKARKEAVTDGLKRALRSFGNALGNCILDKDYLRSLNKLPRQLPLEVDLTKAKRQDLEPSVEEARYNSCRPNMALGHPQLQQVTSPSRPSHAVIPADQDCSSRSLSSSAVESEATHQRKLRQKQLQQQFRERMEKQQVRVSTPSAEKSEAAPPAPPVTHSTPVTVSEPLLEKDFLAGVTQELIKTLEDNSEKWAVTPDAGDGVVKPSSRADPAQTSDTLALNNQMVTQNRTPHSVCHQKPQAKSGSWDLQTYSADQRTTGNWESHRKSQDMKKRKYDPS

[3] = target: T1, DNA repair protein RAD52 homolog (Homo sapiens); experiment: Inhibition of RAD52 in hTERT-immortalized wild-type human GM01604 fibroblasts with BRCA2 knockdown assessed as potentiation of HU and UCN01-induced cell death by Live/Dead assay
[4] = target: T1, DNA repair protein RAD52 homolog (Homo sapiens); experiment: Binding affinity to RAD52 (unknown origin) at 20 uM by water-logsy NMR method
Homo sapiens [5] = species on record: Homo sapiens; experiment: Inhibition of RAD52 (unknown origin) interaction with RPA (unknown origin)
[6] = target: T1, DNA repair protein RAD52 homolog (Homo sapiens); experiment: Inhibition of RAD52 in checkpoint deficient HU-treated in hTERT-immortalized wild-type human GM01604 fibroblasts assessed as decrease in MUS81/EME1/RAD52-dependent DSB formation by measuring mean tail moment in presence of […] by neutral comet assay
[7] = target: T1, DNA repair protein RAD52 homolog (Homo sapiens); experiment: Induction of protein aggregation of RAD52 (unknown origin) by dynamic light scattering assay
Homo sapiens [8] = species on record: Homo sapiens; experiment: Binding affinity to RPA (unknown origin) at 20 uM by water-logsy NMR method
[9] = target: T1, DNA repair protein RAD52 homolog (Homo sapiens); experiment: Inhibition of RAD52 (unknown origin) assessed as reduction in RAD52-ssDNA interaction using Cy3-dT30-Cy5 ssDNA in presence of 0.01% Triton-X100 by FRET assay
Homo sapiens [10] = species on record: Homo sapiens; experiment: Induction of anaphase bridge accumulation in checkpoint deficient HU-treated in hTERT-immortalized wild-type human GM01604 cells assessed as decrease in MUS81/EME1/RAD52-dependent DSB formation by measuring mean tail moment in presence of […] by neutral comet assay; type: functional
[11] = target: T1, DNA repair protein RAD52 homolog (Homo sapiens); experiment: Inhibition of RAD52 in hTERT-immortalized wild-type human GM01604 fibroblasts assessed as cell death at 1 uM relative to control; design: scale not given: the % may be the effect or the level left
[12] = target: T1, DNA repair protein RAD52 homolog (Homo sapiens); experiment: Inhibition of RAD52 in hTERT-immortalized wild-type human GM01604 fibroblasts in presence of BRCA2 siRNA NA RAD52 siRNA assessed as potentiation of HU-induced cell death by Live/Dead assay relative to control
[13] = target: T1, DNA repair protein RAD52 homolog (Homo sapiens); experiment: Inhibition of RAD52 in checkpoint deficient HU-treated in hTERT-immortalized wild-type human GM01604 fibroblasts assessed as inhibiting RAD52-MUS81-dependent DSBs at stalled replication forks in presence of […] by neutral comet assay
[14] = target: T1, DNA repair protein RAD52 homolog (Homo sapiens); experiment: Inhibition of RAD52 in hTERT-immortalized wild-type human GM01604 fibroblasts with MUS81 knockdown assessed as potentiation of HU and UCN01-induced cell death by Live/Dead assay
[15] = target: T1, DNA repair protein RAD52 homolog (Homo sapiens); experiment: Inhibition of RAD52 in checkpoint deficient HU-treated in hTERT-immortalized wild-type human GM01604 fibroblasts assessed as decrease in MUS81/EME1/RAD52-dependent DSB formation by measuring mean tail moment at 500 nM in presence of […] by neutral comet assay
[16] = target: T1, DNA repair protein RAD52 homolog (Homo sapiens); experiment: Effect on oligomeric ring of RAD52 (unknown origin) by dynamic light scattering assay
[17] = target: T2, DNA repair protein RAD52 homolog (Homo sapiens, UniProt P43351); experiment: Inhibition of RAD52 (unknown origin) assessed as effect on RAD52-mediated annealing of complementary oligonucleotides using T-28 ssDNA substrate by FRET assay
T2 sequence (P43351 whole entry): T1 sequence (whole entry)

[18] = target: T2, DNA repair protein RAD52 homolog; experiment: Inhibition of RAD52 (unknown origin) assessed as reduction in RAD52-ssDNA interaction using Cy3-dT30-Cy5 ssDNA by FRET assay
[19] = Solubility in 30 mM Tris-acetate buffer pH 7.5 in presence of 1 mM DTT at 115 uM; type: physicochemical; settings: pH 7.5, 115 µM
[20] = Solubility in 30 mM Tris-acetate buffer pH 7.5 in presence of 1 mM DTT at 10 uM; type: physicochemical; settings: pH 7.5, 10 µM
Homo sapiens [21] = species on record: Homo sapiens; experiment: Binding affinity to RPA (unknown origin) assessed as effect on RPA-ssDNA interaction at 40 uM by water-logsy NMR method
Homo sapiens [22] = species on record: Homo sapiens; experiment: Binding affinity to RPA (unknown origin) at 40 uM by water-logsy NMR method
[23] = Solubility in DMSO at 25 mM; type: physicochemical; settings: 25000 µM
[24] = target: T1, DNA repair protein RAD52 homolog (Homo sapiens); experiment: Binding affinity to RAD52 (unknown origin) by water-logsy NMR method
Homo sapiens [25] = species on record: Homo sapiens; experiment: Binding affinity to RPA (unknown origin) assessed as effect on RPA-ssDNA interaction by water-logsy NMR method
[26] = target: T1, DNA repair protein RAD52 homolog (Homo sapiens); experiment: Inhibition of RAD52 (unknown origin) assessed as reduction in RAD52-dsDNA interaction by FRET assay
Homo sapiens [27] = species on record: Homo sapiens; experiment: Binding affinity to RPA (unknown origin) by water-logsy NMR method

SMILES: Oc1cc(O)c2c(c1)O[C@H](c1cc(O)c(O)c(O)c1)[C@H](O)C2
- Activity (Homo sapiens [1]): inactive
- inhibition [2]: Active
- inhibition [3]: Active
- Activity [4]: Active
- inhibition (Homo sapiens [5]): inactive
- inhibition [6]: Dose-dependent effect
- Activity [7]: inactive
- Activity (Homo sapiens [8]): inactive
- inhibition [9]: Active
- Activity (Homo sapiens [10]): inactive
- Activity [11]: 40%
- inhibition [12]: Active
- inhibition [13]: Active
- inhibition [14]: Active
- inhibition [15]: Active
- Activity [16]: inactive

SMILES: COc1cc(N)c(Cl)cc1C(=O)N[C@H]1CCN(CCCOc2ccc(F)cc2)C[C@H]1OC.O
- IC50 [17]: Not Active

SMILES: Oc1cc(O)c2c(c1)O[C@H](c1ccc(O)c(O)c1)[C@H](O)C2 [(-)-EPICATECHIN]
- IC50 [17]: Not Active

SMILES: O=c1c2ccccc2nc(CSc2[nH]cnc3ncnc2-3)n1-c1cccc(C(F)(F)F)c1
- IC50 [18]: Nd(Insoluble)
- solubility [19]: Insoluble

SMILES: CCOc1cc(C(Nc2cc(C)ccn2)c2ccc3ccc(C)nc3c2O)ccc1OC (stereo not drawn)
- IC50 [18]: Nd(Insoluble)
- solubility [20]: Insoluble

SMILES: O=C(O[C@@H]1Cc2c(O)cc(O)cc2O[C@@H]1c1cc(O)c(O)c(O)c1)c1cc(O)c(O)c(O)c1
- inhibition [2]: Active
- inhibition (Homo sapiens [5]): inactive
- inhibition [6]: Dose-dependent effect
- Activity [7]: inactive
- Activity (Homo sapiens [21]): inactive
- inhibition [9]: Active
- Activity (Homo sapiens [10]): inactive
- inhibition [13]: Active
- inhibition [15]: Active
- Activity [16]: inactive
- Activity (Homo sapiens [22]): Active

SMILES: CC1(C)C(=O)C=C[C@@]2(C)C1=C(O)C(=O)[C@]1(C)[C@@H]2CC[C@@]2(C)[C@H](c3ccoc3)C[C@H]3O[C@]321 [CEDRELONE]
- IC50 [17]: Not Active

SMILES: CCOc1ccccc1NC(=O)c1c(NC(=O)Cc2ccc(OC)cc2)sc2c1CCC2
- IC50 [18]: Nd(Insoluble)
- solubility [23]: Insoluble

SMILES: NCCc1cc(O)c(O)cc1O [OXIDOPAMINE]
- IC50 [17]: Not Active

SMILES: O=C(O[C@@H]1O[C@@H]2COC(=O)c3cc(O)c(O)c(O)c3-c3c(cc(O)c(O)c3O)C(=O)O[C@H]([C@H]1O)[C@@H]2O)c1cc(O)c(O)c(O)c1
- Activity [24]: Active
- Activity (Homo sapiens [25]): inactive
- inhibition [26]: inactive
- Activity (Homo sapiens [27]): Active

SMILES: CN(C)[C@@H]1C(O)=C(C(=O)NCN2CCCC2)C(=O)[C@@]2(O)C(O)=C3C(=O)c4c(O)cccc4[C@@](C)(O)[C@H]3C[C@@H]12 [ROLITETRACYCLINE]
- IC50 [17]: Not Active

SMILES: CC(C)(O)C1Cc2cc3ccc(=O)oc3cc2O1 (stereo not drawn)
- IC50 [18]: Not Active
